Measured values taken from US4767768A, “Nitro aliphatic compounds, process for preparation thereof and use thereof” (Fujisawa Pharmaceutical Co., Ltd., priority 1982, dated 1988).
Converted amounts (≈) assume the structure as drawn. Like-named read-outs stand apart in the source and are kept apart here.

Tests used:
[1] = system: blood pressure; assay: Hypotensive activity in anesthetized rat; assay type: in vivo, rat (Sprague-Dowley); conditions: intravenous, urethane-anesthetized rat
Description: A 8 weeks-old Sprague-Dowley strain rat was anesthetized with urethane (0.7 g/kg, i.p). Blood pressure was recorded from femoral artery using a transducer coupled to a Biophysiograph 180 system (made by Sanei Sokuki Co., Ltd.). The femoral vein was cannulated to permit intravenous injection of the test compound. The test compound was dissolved in saline and injected in a volume of 0.2 ml.

[2] = system: rabbit platelet aggregation; assay: Inhibition of rabbit platelet aggregation (turbidimetric, platelet rich plasma); assay type: cell-based, rabbit (male Japanese White); conditions: Oryctolagus cuniculus
Description: Inhibitory activity of the nitro aliphatic compounds of this invention against rabbit platelet aggregation was measured according to the method described below.
Blood was collected from the central ear arteries of male Japanese White rabbit (2.5 to 3.0 kg body weight). The blood was prevented from coagulation with 1 volume of 3.8% sodium citrate to 9 volumes of blood. Platelet rich plasma (PRP) was prepared by centrifugation of the blood at 1300 rpm for 10 min. at 10° C. The PRP was diluted with platelet poor plasma obtained by further centrifugation of the blood at 3000 rpm for 10 min. The platelet counts in the PRP used for aggregation studies were about 4.0×10^5 platelets/mm^3. Aggregometry was performed with platelet aggregating agents in a SIENCO dual sample aggregometer (DP-247E) at 37° C., using 0.3 ml combined volume of PRP and reagents in a cylindrical glass cuvette under constant stirring with a magnetic stirring bar. Platelet aggregation was measured turbidimetrically by recording changes in the light transmission of PRP during aggregation. Activities of inhibitors were expressed as IC50 values i.e. concentrations required to inhibit the platelet aggregation responses by 50%. Collagen was used in amounts (2 to 20 μg/ml for PRP) sufficient to induce a response that was 80 to 90% of the maximum obtainable. Arachidonic acid was used at a final concentration of 5 μM. Similarly a final concentration of adenosine di-phosphate (ADP), usually 1 to 5 μM was choosen to induce approximately 75% of the maximum aggregation. Thrombin was used at a final concentration of 0.3 U/ml.

[3] = Inducer: Thrombin (0.3 U/ml), Table 2, read-out: IC50, platelet aggregation

SMILES	IC50 [2, 3] [µg/mL]	also measured
CC/C(=C\C(=NO)C(N)=O)C(C)[N+](=O)[O-] (stereo not drawn) [Example 1, (E)-4-ethyl-2-hydroxyimino-5-nitro-3-hexenamide]	–	Hypotensive effect, Duration ([1]; 10 μg/kg): 1.5 min; Hypotensive effect, Maximal decrease ([1]; 10 μg/kg): 10 mm Hg; Hypotensive effect, Duration ([1]; 100 μg/kg): 4 min; Hypotensive effect, Maximal decrease ([1]; 100 μg/kg): 40 mm Hg; IC50 ([2]; inducer: ADP (usually 1 to 5 μM), read-out: IC50 value, platelet aggregation): 0.15 µg/mL (≈ 0.697 µM); IC50 ([2]; inducer: Arachidonic acid (5 μM), read-out: IC50 value, platelet aggregation): 0.75 µg/mL (≈ 3.48 µM); IC50 ([2]; inducer: Collagen (2 to 20 μg/ml), read-out: IC50 value, platelet aggregation): 0.07 µg/mL (≈ 0.325 µM); IC50 ([2]; inducer: Thrombin (0.3 U/ml), Table 1, read-out: IC50 value, platelet aggregation): 0.15 µg/mL (≈ 0.697 µM)
CCC(=CC(=NO)C(=O)NC)C(C)[N+](=O)[O-] (stereo not drawn) [Example 3, N-Methyl-4-ethyl-2-hydroxyimino-5-nitro-3-hexenamide]	0.3 (≈ 1.31 µM)	–
CCC(=CC(=NO)C(=O)N1CCCCC1)C(C)[N+](=O)[O-] (stereo not drawn) [Example 7, N-(4-Ethyl-2-hydroxyimino-5-nitro-3-hexenoyl)piperidine]	0.75 (≈ 2.65 µM)	–
CCC(=CC(=NO)C(N)=O)C(c1ccc(OC)cc1)[N+](=O)[O-] (stereo not drawn) [Example 14, 4-Ethyl-2-hydroxyimino-5-(4-methoxyphenyl)-5-nitro-3-pentenamide]	0.3 (≈ 0.976 µM)	–
CCOC(=O)C(C=C(CC)C(C)[N+](=O)[O-])=NO (stereo not drawn) [Example 19, Ethyl 4-ethyl-2-hydroxyimino-5-nitro-3-hexenoate]	0.07 (≈ 0.287 µM)	–
CCC(=CC(C=NO)=NO)C(C)[N+](=O)[O-] (stereo not drawn) [Example 21, 4-ethyl-2-hydroxyimino-5-nitro-3-hexenaldehyde oxime]	0.15 (≈ 0.697 µM)	–
CCC(=CC(COC(C)=O)=NO)C(C)[N+](=O)[O-] (stereo not drawn) [Example 23, 1-Acetoxy-4-ethyl-2-hydroxyimino-5-nitro-3-hexene]	0.15 (≈ 0.614 µM)	–
CCC(CC(=NO)C(=O)NC(C)(C)C)C(C)[N+](=O)[O-] (stereo not drawn) [Example 24, N-t-butyl-4-ethyl-2-hydroxyimino-5-nitrohexanamide]	1.5 (≈ 5.49 µM)	–

Now from value to molecule, other results behind:

IC50 [2, 3] [µg/mL]	SMILES	also measured
0.15 (≈ 0.553 µM)	CCCCNC(=O)C(C=C(CC)C(C)[N+](=O)[O-])=NO (stereo not drawn) [Example 2, N-n-butyl-4-ethyl-2-hydroxyimino-5-nitro-3-hexenamide]	–
0.3 (≈ 0.961 µM)	CCC(=CC(=NO)C(=O)N1CCN(C=O)CC1)C(C)[N+](=O)[O-] (stereo not drawn) [Example 4, 1-Formyl-4-(4-ethyl-2-hydroxyimino-5-nitro-3-hexenoyl)piperazine]	–
0.15 (≈ 0.549 µM)	CCC(=CC(=NO)C(=O)NCC(=O)O)C(C)[N+](=O)[O-] (stereo not drawn) [Example 6, N-(4-Ethyl-2-hydroxyimino-5-nitro-3-hexenoyl)glycine]	–
0.3 (≈ 0.945 µM)	CCC(=CC(=NO)C(=O)N[C@H](C(=O)O)[C@@H](C)O)C(C)[N+](=O)[O-] (stereo partly drawn) [Example 10, N-(4-Ethyl-2-hydroxyimino-5-nitro-3-hexenoyl)-L-threonine]	–
0.15 (≈ 0.491 µM)	CCC(=CC(=NO)C(=O)NCc1ccccc1)C(C)[N+](=O)[O-] (stereo not drawn) [Example 11, N-Benzyl-4-ethyl-2-hydroxyimino-5-nitro-3-hexenamide]	–
0.75 (≈ 2.49 µM)	CCC(=CC(=NO)C(=O)NCCCC(=O)O)C(C)[N+](=O)[O-] (stereo not drawn) [Example 15, N-[4-Ethyl-2-hydroxyimino-5-nitro-3-hexenoyl]-4-aminobutyric acid]	–
1.5 (≈ 7.61 µM)	CCC(=CC(C#N)=NO)C(C)[N+](=O)[O-] (stereo not drawn) [Example 17, 4-Ethyl-2-hydroxyimino-5-nitro-3-hexenenitrile]	–
3 (≈ 15 µM)	CCC(=CC(C=O)=NO)C(C)[N+](=O)[O-] (stereo not drawn) [Example 18, 4-Ethyl-2-hydroxyimino-5-nitro-3-hexenal]	–
0.15 (≈ 0.522 µM)	CCC(=CC(=NO)C(=O)NCC(=O)OC)C(C)[N+](=O)[O-] (stereo not drawn) [Example 20, Methyl 2-[4-ethyl-2-hydroxyimino-5-nitro-3-hexenoylamino]acetate]	–
0.75 (≈ 3.71 µM)	CCC(=CC(CO)=NO)C(C)[N+](=O)[O-] (stereo not drawn) [Example 22, 4-ethyl-2-hydroxyimino-5-nitro-3-hexen-1-ol]	–
6 (≈ 27.6 µM)	CCC(CC(=NO)C(N)=O)C(C)[N+](=O)[O-] (stereo not drawn) [Example 25, 4-Ethyl-2-hydroxyimino-5-nitro-hexanamide]	–
6 (≈ 34.8 µM)	CCC(=CC=NO)C(C)[N+](=O)[O-] (stereo not drawn) [Example 28, 3-ethyl-4-nitro-2-pentenaloxime]	–
